system: OPN production in RPMI8226 cells; test: OPN production inhibiting effect in cultured RPMI8226 cells (ELISA of culture supernatant); assay type: cell-based, human; details: Homo sapiens, RPMI-8226, 72 h; RPMI8226 myeloma cells; 3 days prophase + 3 days anaphase culture; 0.1-10 μmol/L; OPN in culture supernatant by ELISA; logistic curve; read-out: IC50 (OPN production inhibition)
Description: Compounds 1 to 6 were separately dissolved in dimethylsulfoxide (DMSO) to prepare 20 mmol/L solutions of the respective compounds. Aliquots of those solutions were diluted further to prepare 6, 2, 0.6 and 0.2 mmol/L solutions of the respective compounds. The DMSO solutions of the respective compounds (1 to 6) (concentrations: 0.2 to 20 mmol/L) and DMSO (as a compound non-addition group) were separately diluted 1,000-fold with a culture medium (10% fetal-bovine-serum (FBS)-added RPMI-1640 medium) to prepare 0 (non-addition group), 0.2, 0.6, 2, 6 and 20 μmol/L solutions of the respective compounds (1-6).
3) Study on the OPN Production Inhibiting Effect of the Individual Compounds in RPMI8226 Cells
A 2×10^5 cells/mL cell suspension of RPMI8226 cells was prepared, and was seeded 2 mL by 2 mL per well on a 6-well plates. To the wells, the individual solutions prepared in the procedure 2) (the solutions of Compounds 1 to 6, having concentrations of 0 (non-addition group), 0.2, 0.6, 2, 6, and 20 μmol/L, respectively) were added 2 mL by 2 mL per well, followed by mixing to bring the final concentrations of Compound 1-6 in the individual wells to 0 (non-added group), 0.1, 0.3, 1, 3 and 10 μmol/L. The cells of those conditions were cultured as prophase culture at 37° C. for 3 days in the presence of 5% CO2.
After the above-described culture, the cells in the respective wells were collected, and were counted well by well. Those cells were again suspended separately in aliquots of a 2×10^5 cells/mL suspension, and the cells of the respective conditions were each seeded 0.5 mL by 0.5 mL per well in two wells. To the wells of the respective conditions, individual solutions prepared at the same concentrations as those at the time of the culture in a similar manner as in the prophase culture (individual solutions of Compounds 1 to 6, having concentrations of […], respectively) were added 0.5 mL by 0.5 mL per sell to the individual wells. After mixing, the cells were cultured as anaphase culture at 37° C. for 3 days in the presence of 5% CO2.
Subsequent to the completion of the anaphase culture, culture supernatants were separately collected from the respective wells, and the OPN concentrations in the individual culture supernatants were quantitated with an absorptiometer by ELISA (Human Osteopontin Measurement Kit IBL; IBL Co., Ltd.).
Using the SAS Preclinical Package, Version 5.0, the measurement values were analyzed by the following procedure. Described specifically, the concentrations were logarithmically converted (the compound non-addition group (0 μmol/L) was replaced by 1 pmol/L), and using the measurement values (6 concentrations, 2 measurement values per concentration, 12 measurement values in total), plotting into a logistic curve was conducted. From the curve, concentrations (IC50) which give 50% reactivity were calculated.

In order of rising IC50:
1. CCn1nc(-c2ccc(OC)cc2)c(-c2ccc(OC)cc2)cc1=O [Compound 6, 5,6-bis(4-methoxyphenyl)-2-ethyl-2H-pyridazin-3-one]  1120 nM
2. CSc1ccc(-c2nn(Cc3ccccn3)c(=S)cc2-c2ccc(Cl)cc2)cc1 [Compound 1, 5-(4-chlorophenyl)-6-[4-(methylthio)phenyl]-2-(2-pyridylmethyl)-2H-pyridazine-3-thione methanesulfonate]  2090 nM
3. CSc1ccc(-c2nn(Cc3ccccc3)c(=O)cc2-c2ccc(Cl)cc2)cc1 [Compound 4, 2-benzyl-5-(4-chlorophenyl)-6-[4-(methylthio)phenyl]-2H-pyridazin-3-one]  2560 nM
4. COc1ccc(-c2cc(=O)n(CC=Cc3ccc(Cl)cc3)nc2-c2ccc(OC)cc2)cc1 [Compound 3, 5,6-bis(4-methoxyphenyl)-2-(4-chlorocinnamyl)-2H-pyridazin-3-one]  2760 nM
5. CSc1ccc(-c2nn(Cc3cccnc3)c(=O)cc2-c2ccc(Cl)cc2)cc1 [Compound 2, 5-(4-chlorophenyl)-6-[4-(methylthio)phenyl]-2-(3-pyridylmethyl)-2H-pyridazin-3-one methanesulfonate]  2910 nM

same assay, conditions: RPMI8226 myeloma cells; 3 days prophase + 3 days anaphase culture; 0.1-10 μmol/L; OPN in culture supernatant by ELISA; logistic curve; read-out: IC50 (OPN production inhibition)

`COc1ccc(-c2nn(Cc3ccc(Cl)cc3)c(=O)cc2-c2ccncc2)cc1` [Compound 5] showed an IC50 of 2420 nM.
